Test results from patent publication US20250319067A1, “Improved Pharmacokinetics of Tryptamine Prodrugs” (Reunion Neuroscience, Inc., priority 2023, published 2025).

Test system: healthy females
Test: Phase 1 FIH single ascending dose study: safety and tolerability (AEs)
Assay type: in vivo, human
Description: The study was a double-blind, randomized, placebo-controlled Phase 1 single ascending dose study in up to 6 cohorts in healthy females. Eligibility was assessed during a screening period of up to 28 days prior to enrollment. For the treatment period, subjects were admitted to the clinical research unit (CRU) one day prior to the dosing (Day −1). On Day 1, all subjects will received the assigned SC dose of RE104 HCl or placebo in a fed state (after domiciling overnight and consuming a planned evening meal on Day −1 and morning meal on Day 1 while at the CRU). Subjects were allowed to select snacks from a planned menu from 4 hours following dosing. Subjects were discharged from the clinic on Day 2 (−24 hours post-dose) after all required study procedures were completed and if deemed medically fit. Subjects returned to the clinic on Day 10 (±2 days) for a follow up visit.
Six (6) cohorts were enrolled in the study. Six (6) single doses were tested in 6 cohorts (Cohort 1 to Cohort 6) of 8 healthy female subjects (6 active and 2 placebo), as indicated in FIG. 1 and Table 3.
The starting dose was 5.5 mg RE104 HCl. Sentinels were used in all cohorts. Within each cohort, 2 subjects were treated first: 1 subject received RE104 HCl and 1 subject received placebo.
The study was monitored by a safety review committee (SRC). […] Safety, tolerability, and available PK data were assessed by the SRC between each cohort before ascending to the next dose level (Table 3). After each cohort dosing was complete, the SRC met to discuss dose escalation. Escalation to the next higher dose level occurred only after evaluation of the safety and tolerability data up to and including at least 24 hours post-dose of all evaluable subjects in the previous dose cohort. Available PK results were requested for determination of dose escalation, as deemed necessary.
Dosing took place at a time point agreed to with the investigational pharmacy and acceptable to the investigator. RE104 HCl or placebo were administered as a SC injection in the upper arm. Subjects received RE104 HCl or placebo in a fed state. The time of administration of RE104 HCl or placebo was be recorded in the eCRF. The regimen used is outlined in Table 3.
Within each cohort, 2 sentinel subjects were treated first: 1 subject received RE104 HCl and 1 subject received placebo. […] All drug administration was be done under direct medical supervision. Study subjects were overseen during the potentially psychoactive study drug period by professionals trained to monitor psychedelic experiences.

## CC(C)N(CCc1c[nH]c2cccc(OC(=O)CCCC(=O)O)c12)C(C)C [RE104]
RE104 5.5 mg, n = 6
  AE Abdominal pain: 0 n (%)
  AE Agitation: 0 n (%)
  AE Diarrhea: 0 n (%)
  AE Distress: 0 n (%)
  AE Fatigue: 0 n (%)
  AE Feeling hot: 0 n (%)
  AE Headache: 0 n (%)
  AE Heart rate increased: 0 n (%)
  AE Hyperhidrosis: 0 n (%)
  AE Muscle twitching: 0 n (%)
  AE Musculoskeletal injury: 0 n (%)
  AE Nausea: 1 (16.7) n (%)
  AE Restlessness: 0 n (%)
  AE Sinus tachycardia: 0 n (%)
  AE Thirst: 0 n (%)
  AE Tremor: 0 n (%)
  AE Vomiting: 1 (16.7) n (%)
  AEs leading to: 0 n (%)
  Any AE: 2 (33.3) n (%)
  Any SAE: 0 n (%)
  Severe AEs: 0 n (%)
RE104 11 mg, n = 6
  AE Abdominal pain: 0 n (%)
  AE Agitation: 0 n (%)
  AE Diarrhea: 0 n (%)
  AE Distress: 0 n (%)
  AE Fatigue: 0 n (%)
  AE Feeling hot: 0 n (%)
  AE Headache: 1 (16.7) n (%)
  AE Heart rate increased: 0 n (%)
  AE Hyperhidrosis: 0 n (%)
  AE Muscle twitching: 0 n (%)
  AE Musculoskeletal injury: 0 n (%)
  AE Nausea: 2 (33.3) n (%)
  AE Restlessness: 0 n (%)
  AE Sinus tachycardia: 0 n (%)
  AE Thirst: 0 n (%)
  AE Tremor: 0 n (%)
  AE Vomiting: 0 n (%)
  AEs leading to: 0 n (%)
  Any AE: 2 (33.3) n (%)
  Any SAE: 0 n (%)
  Severe AEs: 0 n (%)
RE104 22 mg, n = 6
  AE Abdominal pain: 0 n (%)
  AE Agitation: 0 n (%)
  AE Diarrhea: 1 (16.7) n (%)
  AE Distress: 0 n (%)
  AE Fatigue: 0 n (%)
  AE Feeling hot: 1 (16.7) n (%)
  AE Headache: 0 n (%)
  AE Heart rate increased: 1 (16.7) n (%)
  AE Hyperhidrosis: 1 (16.7) n (%)
  AE Muscle twitching: 0 n (%)
  AE Musculoskeletal injury: 0 n (%)
  AE Nausea: 0 n (%)
  AE Restlessness: 0 n (%)
  AE Sinus tachycardia: 0 n (%)
  AE Thirst: 0 n (%)
  AE Tremor: 0 n (%)
  AE Vomiting: 0 n (%)
  AEs leading to: 0 n (%)
  Any AE: 2 (33.3) n (%)
  Any SAE: 0 n (%)
  Severe AEs: 0 n (%)
RE104 33 mg, n = 9
  AE Abdominal pain: 2 (22.2) n (%)
  AE Agitation: 0 n (%)
  AE Diarrhea: 0 n (%)
  AE Distress: 0 n (%)
  AE Fatigue: 2 (22.2) n (%)
  AE Feeling hot: 0 n (%)
  AE Headache: 1 (11.1) n (%)
  AE Heart rate increased: 0 n (%)
  AE Hyperhidrosis: 0 n (%)
  AE Muscle twitching: 3 (33.3) n (%)
  AE Musculoskeletal injury: 1 (11.1) n (%)
  AE Nausea: 3 (33.3) n (%)
  AE Restlessness: 3 (33.3) n (%)
  AE Sinus tachycardia: 4 (44.4) n (%)
  AE Thirst: 0 n (%)
  AE Tremor: 1 (11.1) n (%)
  AE Vomiting: 0 n (%)
  AEs leading to: 0 n (%)
  Any AE: 8 (88.9) n (%)
  Any SAE: 0 n (%)
  Severe AEs: 0 n (%)
RE104 38 mg, n = 6
  AE Abdominal pain: 0 n (%)
  AE Agitation: 2 (33.3) n (%)
  AE Diarrhea: 2 (33.3) n (%)
  AE Distress: 1 (16.7) n (%)
  AE Fatigue: 0 n (%)
  AE Feeling hot: 0 n (%)
  AE Headache: 4 (66.7) n (%)
  AE Heart rate increased: 0 n (%)
  AE Hyperhidrosis: 1 (16.7) n (%)
  AE Muscle twitching: 0 n (%)
  AE Musculoskeletal injury: 0 n (%)
  AE Nausea: 2 (33.3) n (%)
  AE Restlessness: 3 (50.0) n (%)
  AE Sinus tachycardia: 3 (50.0) n (%)
  AE Thirst: 2 (33.3) n (%)
  AE Tremor: 0 n (%)
  AE Vomiting: 0 n (%)
  AEs leading to: 0 n (%)
  Any AE: 5 (83.3) n (%)
  Any SAE: 0 n (%)
  Severe AEs: 1 (16.7) n (%)
RE104 44 mg, n = 3
  AE Abdominal pain: 0 n (%)
  AE Agitation: 2 n (%)
  AE Diarrhea: 0 n (%)
  AE Distress: 1 n (%)
  AE Fatigue: 0 n (%)
  AE Feeling hot: 0 n (%)
  AE Headache: 0 n (%)
  AE Heart rate increased: 0 n (%)
  AE Hyperhidrosis: 1 n (%)
  AE Muscle twitching: 0 n (%)
  AE Musculoskeletal injury: 0 n (%)
  AE Nausea: 2 n (%)
  AE Restlessness: 1 n (%)
  AE Sinus tachycardia: 2 n (%)
  AE Thirst: 0 n (%)
  AE Tremor: 1 n (%)
  AE Vomiting: 1 n (%)
  AEs leading to: 0 n (%)
  Any AE: 3 n (%)
  Any SAE: 0 n (%)
  Severe AEs: 1 n (%)
asymptomatic
  sinus tachycardia, maximum recorded value: 115 beats per minute
